In patent publication US12180194B2, “Multi-aziridine compound” (Covestro (Netherlands) B.V., priority 2018, dated 2024):

The compounds below were run on Bscl2-GFP (assay: ToxTracker genotoxicity assay, Bscl2-GFP reporter induction). Details: GFP induction vs vehicle at 10% cytotoxicity; 3 h exposure with S9, 24 h recovery.

In order of rising “Genotoxicity test, With S9 rat liver extract, Bscl 2, 10” value:
1. CCCCC(CC)COCC(CN1CC1C)OC(=O)NCCCCCCn1c(=O)n(CCCCCCNC(=O)OC(COCC(CC)CCCC)CN2CC2C)c(=O)n(CCCCCCNC(=O)OC(COCC(CC)CCCC)CN2CC2C)c1=O (stereo not shown) [Ex. 20]  0.9 fold
2. CC(CN1CC1C)OC(=O)NC(C)(C)c1cccc(C(C)(C)NC(=O)OC(C)CN2CC2C)c1 (stereo not shown) [Comp. Ex. 8, reference compound]  1.1 fold
3. CCC(CN1CC1C)OC(=O)NCCCCCCn1c(=O)n(CCCCCCNC(=O)OC(CC)CN2CC2C)c(=O)n(CCCCCCNC(=O)OC(CC)CN2CC2C)c1=O (stereo not shown) [Ex. 7]  1.1 fold

Same assay, conditions: GFP induction vs vehicle at 10% cytotoxicity; 24 h exposure, no S9

In order of falling “Genotoxicity test, Without S9 rat liver extract, Bscl 2, 10” value:
1. CC(CN1CC1C)OC(=O)NC(C)(C)c1cccc(C(C)(C)NC(=O)OC(C)CN2CC2C)c1 (stereo not shown) [Comp. Ex. 8, reference compound]  1.2 fold
2. CCC(CN1CC1C)OC(=O)NCCCCCCn1c(=O)n(CCCCCCNC(=O)OC(CC)CN2CC2C)c(=O)n(CCCCCCNC(=O)OC(CC)CN2CC2C)c1=O (stereo not shown) [Ex. 7]  1.1 fold
3. CCCCC(CC)COCC(CN1CC1C)OC(=O)NCCCCCCn1c(=O)n(CCCCCCNC(=O)OC(COCC(CC)CCCC)CN2CC2C)c(=O)n(CCCCCCNC(=O)OC(COCC(CC)CCCC)CN2CC2C)c1=O (stereo not shown) [Ex. 20]  1.0 fold

Same assay, conditions: GFP induction vs vehicle at 25% cytotoxicity; 3 h exposure with S9, 24 h recovery

In order of rising “Genotoxicity test, With S9 rat liver extract, Bscl 2, 25” value:
1. CCCCC(CC)COCC(CN1CC1C)OC(=O)NCCCCCCn1c(=O)n(CCCCCCNC(=O)OC(COCC(CC)CCCC)CN2CC2C)c(=O)n(CCCCCCNC(=O)OC(COCC(CC)CCCC)CN2CC2C)c1=O (stereo not shown) [Ex. 20]  0.8 fold
2. CCC(CN1CC1C)OC(=O)NCCCCCCn1c(=O)n(CCCCCCNC(=O)OC(CC)CN2CC2C)c(=O)n(CCCCCCNC(=O)OC(CC)CN2CC2C)c1=O (stereo not shown) [Ex. 7]  1.3 fold
3. CC(CN1CC1C)OC(=O)NC(C)(C)c1cccc(C(C)(C)NC(=O)OC(C)CN2CC2C)c1 (stereo not shown) [Comp. Ex. 8, reference compound]  2.1 fold

Same assay, conditions: GFP induction vs vehicle at 25% cytotoxicity; 24 h exposure, no S9

In order of falling “Genotoxicity test, Without S9 rat liver extract, Bscl 2, 25” value:
1. CC(CN1CC1C)OC(=O)NC(C)(C)c1cccc(C(C)(C)NC(=O)OC(C)CN2CC2C)c1 (stereo not shown) [Comp. Ex. 8, reference compound]  1.7 fold
2. CCC(CN1CC1C)OC(=O)NCCCCCCn1c(=O)n(CCCCCCNC(=O)OC(CC)CN2CC2C)c(=O)n(CCCCCCNC(=O)OC(CC)CN2CC2C)c1=O (stereo not shown) [Ex. 7]  1.1 fold
3. CCCCC(CC)COCC(CN1CC1C)OC(=O)NCCCCCCn1c(=O)n(CCCCCCNC(=O)OC(COCC(CC)CCCC)CN2CC2C)c(=O)n(CCCCCCNC(=O)OC(COCC(CC)CCCC)CN2CC2C)c1=O (stereo not shown) [Ex. 20]  1.0 fold

Same assay, conditions: GFP induction vs vehicle at 50% cytotoxicity; 3 h exposure with S9, 24 h recovery

In order of rising “Genotoxicity test, With S9 rat liver extract, Bscl 2, 50” value:
1. CCCCC(CC)COCC(CN1CC1C)OC(=O)NCCCCCCn1c(=O)n(CCCCCCNC(=O)OC(COCC(CC)CCCC)CN2CC2C)c(=O)n(CCCCCCNC(=O)OC(COCC(CC)CCCC)CN2CC2C)c1=O (stereo not shown) [Ex. 20]  0.7 fold
2. CCC(CN1CC1C)OC(=O)NCCCCCCn1c(=O)n(CCCCCCNC(=O)OC(CC)CN2CC2C)c(=O)n(CCCCCCNC(=O)OC(CC)CN2CC2C)c1=O (stereo not shown) [Ex. 7]  1.5 fold
3. CC(CN1CC1C)OC(=O)NC(C)(C)c1cccc(C(C)(C)NC(=O)OC(C)CN2CC2C)c1 (stereo not shown) [Comp. Ex. 8, reference compound]  2.1 fold

Same assay, conditions: GFP induction vs vehicle at 50% cytotoxicity; 24 h exposure, no S9

In order of rising “Genotoxicity test, Without S9 rat liver extract, Bscl 2, 50” value:
1. CCCCC(CC)COCC(CN1CC1C)OC(=O)NCCCCCCn1c(=O)n(CCCCCCNC(=O)OC(COCC(CC)CCCC)CN2CC2C)c(=O)n(CCCCCCNC(=O)OC(COCC(CC)CCCC)CN2CC2C)c1=O (stereo not shown) [Ex. 20]  0.7 fold
2. CC(CN1CC1C)OC(=O)NC(C)(C)c1cccc(C(C)(C)NC(=O)OC(C)CN2CC2C)c1 (stereo not shown) [Comp. Ex. 8, reference compound]  2.3 fold

These compounds were tested on Rtkn-GFP (assay: ToxTracker genotoxicity assay, Rtkn-GFP reporter induction). Details: GFP induction vs vehicle at 10% cytotoxicity; 3 h exposure with S9, 24 h recovery.

In order of falling “Genotoxicity test, With S9 rat liver extract, Rtkn, 10” value:
1. CC(CN1CC1C)OC(=O)NC(C)(C)c1cccc(C(C)(C)NC(=O)OC(C)CN2CC2C)c1 (stereo not shown) [Comp. Ex. 8, reference compound]  1.3 fold
2. CCC(CN1CC1C)OC(=O)NCCCCCCn1c(=O)n(CCCCCCNC(=O)OC(CC)CN2CC2C)c(=O)n(CCCCCCNC(=O)OC(CC)CN2CC2C)c1=O (stereo not shown) [Ex. 7]  1.1 fold
3. CCCCC(CC)COCC(CN1CC1C)OC(=O)NCCCCCCn1c(=O)n(CCCCCCNC(=O)OC(COCC(CC)CCCC)CN2CC2C)c(=O)n(CCCCCCNC(=O)OC(COCC(CC)CCCC)CN2CC2C)c1=O (stereo not shown) [Ex. 20]  1.0 fold

Same assay, conditions: GFP induction vs vehicle at 10% cytotoxicity; 24 h exposure, no S9

In order of falling “Genotoxicity test, Without S9 rat liver extract, Rtkn, 10” value:
1. CC(CN1CC1C)OC(=O)NC(C)(C)c1cccc(C(C)(C)NC(=O)OC(C)CN2CC2C)c1 (stereo not shown) [Comp. Ex. 8, reference compound]  1.4 fold
2. CCC(CN1CC1C)OC(=O)NCCCCCCn1c(=O)n(CCCCCCNC(=O)OC(CC)CN2CC2C)c(=O)n(CCCCCCNC(=O)OC(CC)CN2CC2C)c1=O (stereo not shown) [Ex. 7]  1.1 fold
3. CCCCC(CC)COCC(CN1CC1C)OC(=O)NCCCCCCn1c(=O)n(CCCCCCNC(=O)OC(COCC(CC)CCCC)CN2CC2C)c(=O)n(CCCCCCNC(=O)OC(COCC(CC)CCCC)CN2CC2C)c1=O (stereo not shown) [Ex. 20]  1.1 fold

Same assay, conditions: GFP induction vs vehicle at 25% cytotoxicity; 3 h exposure with S9, 24 h recovery

In order of rising “Genotoxicity test, With S9 rat liver extract, Rtkn, 25” value:
1. CCCCC(CC)COCC(CN1CC1C)OC(=O)NCCCCCCn1c(=O)n(CCCCCCNC(=O)OC(COCC(CC)CCCC)CN2CC2C)c(=O)n(CCCCCCNC(=O)OC(COCC(CC)CCCC)CN2CC2C)c1=O (stereo not shown) [Ex. 20]  1.1 fold
2. CCC(CN1CC1C)OC(=O)NCCCCCCn1c(=O)n(CCCCCCNC(=O)OC(CC)CN2CC2C)c(=O)n(CCCCCCNC(=O)OC(CC)CN2CC2C)c1=O (stereo not shown) [Ex. 7]  1.3 fold
3. CC(CN1CC1C)OC(=O)NC(C)(C)c1cccc(C(C)(C)NC(=O)OC(C)CN2CC2C)c1 (stereo not shown) [Comp. Ex. 8, reference compound]  4.2 fold

Same assay, conditions: GFP induction vs vehicle at 25% cytotoxicity; 24 h exposure, no S9

In order of rising “Genotoxicity test, Without S9 rat liver extract, Rtkn, 25” value:
1. CCC(CN1CC1C)OC(=O)NCCCCCCn1c(=O)n(CCCCCCNC(=O)OC(CC)CN2CC2C)c(=O)n(CCCCCCNC(=O)OC(CC)CN2CC2C)c1=O (stereo not shown) [Ex. 7]  1.3 fold
2. CCCCC(CC)COCC(CN1CC1C)OC(=O)NCCCCCCn1c(=O)n(CCCCCCNC(=O)OC(COCC(CC)CCCC)CN2CC2C)c(=O)n(CCCCCCNC(=O)OC(COCC(CC)CCCC)CN2CC2C)c1=O (stereo not shown) [Ex. 20]  1.3 fold
3. CC(CN1CC1C)OC(=O)NC(C)(C)c1cccc(C(C)(C)NC(=O)OC(C)CN2CC2C)c1 (stereo not shown) [Comp. Ex. 8, reference compound]  2.3 fold

Same assay, conditions: GFP induction vs vehicle at 50% cytotoxicity; 3 h exposure with S9, 24 h recovery

In order of rising “Genotoxicity test, With S9 rat liver extract, Rtkn, 50” value:
1. CCCCC(CC)COCC(CN1CC1C)OC(=O)NCCCCCCn1c(=O)n(CCCCCCNC(=O)OC(COCC(CC)CCCC)CN2CC2C)c(=O)n(CCCCCCNC(=O)OC(COCC(CC)CCCC)CN2CC2C)c1=O (stereo not shown) [Ex. 20]  1.1 fold
2. CCC(CN1CC1C)OC(=O)NCCCCCCn1c(=O)n(CCCCCCNC(=O)OC(CC)CN2CC2C)c(=O)n(CCCCCCNC(=O)OC(CC)CN2CC2C)c1=O (stereo not shown) [Ex. 7]  1.5 fold
3. CC(CN1CC1C)OC(=O)NC(C)(C)c1cccc(C(C)(C)NC(=O)OC(C)CN2CC2C)c1 (stereo not shown) [Comp. Ex. 8, reference compound]  4.9 fold

Same assay, conditions: GFP induction vs vehicle at 50% cytotoxicity; 24 h exposure, no S9

In order of rising “Genotoxicity test, Without S9 rat liver extract, Rtkn, 50” value:
1. CCCCC(CC)COCC(CN1CC1C)OC(=O)NCCCCCCn1c(=O)n(CCCCCCNC(=O)OC(COCC(CC)CCCC)CN2CC2C)c(=O)n(CCCCCCNC(=O)OC(COCC(CC)CCCC)CN2CC2C)c1=O (stereo not shown) [Ex. 20]  1.2 fold
2. CC(CN1CC1C)OC(=O)NC(C)(C)c1cccc(C(C)(C)NC(=O)OC(C)CN2CC2C)c1 (stereo not shown) [Comp. Ex. 8, reference compound]  4.8 fold
